The nature of this series: Acute intervention: nutrikinetics of plasma metabolites after ingestion of L. citriodora extract (untargeted HPLC-ESI-QTOF-MS). The method, then: A total of 25 healthy individuals participated, with an average age of 27 ± 9 years and a mean body mass index (BMI) of 23 ± 3 kg/m^2. None of the participants were taking any medications or nutritional supplements nor did they have any chronic diseases or gastrointestinal issues. The sample size was established based on findings from previous bioavailability research.[14] All participants provided informed consent before participating in the study.
The intervention study was carried out at Miguel Hernández University. Following an overnight fast, the volunteers were categorized into the subsequent groups: a subgroup to evaluate the LC leaf extract (n = 8), another for the OE leaf extract (n = 8), and the placebo subgroup (n = 9). This was a double-blind study, in which sample collection and treatment were carried out uniformly across all three subgroups.
Water was provided ad libitum. Prior to the ingestion of the capsule, a nurse inserted a cannula into the ulnar vein of each volunteer’s nondominant arm, and blood samples were drawn into EDTA-coated tubes at baseline (t = 0). Blood samples were then collected at 0.5, 1, 2, 4, 6, 8, and 10 h after the consumption of the 500 mg capsule. Plasma was separated through centrifugation (10 min at 3000 rpm and 4 °C) and stored at −80 °C until further analysis.
Plasma samples were initially treated using a mixture of methanol and ethanol (50:50; v:v) to remove proteins, following previously reported protocols.[19] During the sample treatment, pooled quality controls (pooled-QC) were prepared by combining equal aliquots from each sample. These QC samples were processed by using the same protocols as the experimental biological samples.
A reversed-phase analytical C18 column (Agilent Zorbax Eclipse Plus, 1.8 μm, 4.6 × 150 mm^2) with a protective cartridge with the same packing was used. MS data were acquired in negative ionization mode, operating in full scan across a mass-to-charge ratio (m/z) range of 50–1700. The analytical method used was adapted from that described by Villegas-Aguilar et al.[19]
Metabolite nutrikinetics were studied using PKSolver, an add-in program for pharmacokinetic data analysis in Microsoft Excel. The time to reach the maximum concentration (observed Tmax) was calculated for each significant metabolite. As an untargeted metabolomic approach was used to detect the circulating metabolites, these were not quantified. Therefore, the maximum concentration (Cmax) and area under the curve (AUC) parameters were calculated in a relative way by using the deconvoluted chromatographic areas. […] Statistical differences were determined by unpaired t tests. All p values less than 0.05 were considered statistically significant.

The mark [1] stands for this setting: 0.5 h after L. citriodora extract.
Setting [2] is: 1 h after L. citriodora extract.
[3] abbreviates: 2 h after L. citriodora extract.
[4] abbreviates: 4 h after L. citriodora extract.
The mark [5] stands for this setting: 6 h after L. citriodora extract.
Where [6] appears, read: 8 h after L. citriodora extract.
[7] abbreviates: 10 h after L. citriodora extract.
Setting [8] is: human plasma, 500 mg capsule of L. citriodora (LC) extract, oral, mean ± SD.

For `O=C(O)C=Cc1ccc(OS(=O)(=O)O)c(O)c1` (single isomer, unassigned; isomer 2) [caffeic acid 4-sulfate isomer 2, caffeic acid 4-sulfate], under “human, in vivo, po, 500 mg”, the “AUC: area under the zero-moment curve” value is reported as 1656 ± 1922 relative chromatographic area/h, the “Cmax: relative maximum plasma level” value is listed as 357 ± 268 relative chromatographic area and the “observed Tmax: time required to reach Cmax” value (from here on “observed Tmax: time required”) worked out at 3 ± 2 h. For the same molecule, for the setting “in vivo”, the “mean chromatographic area in plasma, T0.5” value worked out at 0; the “mean chromatographic area in plasma, T1” value is listed as 67; the “mean chromatographic area in plasma, T2” value is given as 277; the “mean chromatographic area in plasma, T4” value worked out at 266. Where the note is “in vivo”, the “mean chromatographic area in plasma, T6” value is reported as 189; the “mean chromatographic area in plasma, T8” value stood at 129; the “mean chromatographic area in plasma, T10” value came to 22.

On to `COc1cc(CCCO)ccc1OC1OC(CO)C(O)C(O)C1O` (single isomer, unassigned; isomer 2) [dihydroconiferin isomer 2, dihydroconiferin], for which the “mean chromatographic area in plasma, T0.5” value under setting [1] is recorded as 34. For the same molecule, the “mean chromatographic area in plasma, T1” value under setting [2] was 136. Besides, under setting [3], the “mean chromatographic area in plasma, T2” value came out at 83. Moreover, the “mean chromatographic area in plasma, T4” value under setting [4] stood at 0. Further, the “mean chromatographic area in plasma, T6” value under setting [5] was found to be 0. The “mean chromatographic area in plasma, T8” value under setting [6] amounted to 0. Besides, under setting [7], the “mean chromatographic area in plasma, T10” value is listed as 0. In addition, under setting [8], the “AUC: area under the zero-moment curve” value was 244 ± 102 relative chromatographic area/h, the “Cmax: relative maximum plasma level” value is listed as 136 ± 28 relative chromatographic area and the “observed Tmax: time required” value turned out to be 1 ± 0 h.

With `CC1=CC(=O)CC(C)(C)C1(O)/C=C/C(C)=C/COC1OC(CO)C(O)C(O)C1O` (single isomer, unassigned; isomer 3) [abscisic alcohol 11-glucoside isomer 3, abscisic alcohol 11-glucoside], under setting [1], the “mean chromatographic area in plasma, T0.5” value is 56. For the same molecule, the “mean chromatographic area in plasma, T1” value under setting [2] is listed as 258. For the same molecule, the “mean chromatographic area in plasma, T2” value under setting [3] is on record as 13. Besides, the “mean chromatographic area in plasma, T4” value under setting [4] is 13. Also, the “mean chromatographic area in plasma, T6” value under setting [5] is 0. Besides, the “mean chromatographic area in plasma, T8” value under setting [6] is listed as 0. In addition, under setting [7], the “mean chromatographic area in plasma, T10” value was 0. Also, under setting [8], the “AUC: area under the zero-moment curve” value is given as 267 ± 94 relative chromatographic area/h, the “Cmax: relative maximum plasma level” value is 258 ± 95 relative chromatographic area and the “observed Tmax: time required” value turned out to be 1 ± 0 h.

In the case of `CC(O)/C=C\C/C=C\C/C=C\CCCCCCCC(=O)O` (stereo not drawn) [17-hydroxylinolenic acid], the “mean chromatographic area in plasma, T0.5” value under setting [1] is 81. Moreover, under setting [2], the “mean chromatographic area in plasma, T1” value came out at 428. Moreover, the “mean chromatographic area in plasma, T2” value under setting [3] came out at 445. For the same molecule, under setting [4], the “mean chromatographic area in plasma, T4” value came out at 184. Moreover, the “mean chromatographic area in plasma, T6” value under setting [5] is recorded as 31. The “mean chromatographic area in plasma, T8” value under setting [6] worked out at 12. For the same molecule, under setting [7], the “mean chromatographic area in plasma, T10” value is given as 20. Under setting [8], the “AUC: area under the zero-moment curve” value was 1621 ± 1914 relative chromatographic area/h, the “Cmax: relative maximum plasma level” value was 335 ± 306 relative chromatographic area and the “observed Tmax: time required” value was determined as 6 ± 4 h.

`COc1cc(/C=C/C(=O)O)ccc1O[C@@H]1O[C@H](C(=O)O)[C@@H](O)[C@H](O)[C@H]1O` [ferulic acid 4-O-glucuronide]: under setting [1], the “mean chromatographic area in plasma, T0.5” value is 0. Besides, under setting [2], the “mean chromatographic area in plasma, T1” value stood at 0. In addition, the “mean chromatographic area in plasma, T2” value under setting [3] is listed as 66. Moreover, under setting [4], the “mean chromatographic area in plasma, T4” value came out at 163. Moreover, the “mean chromatographic area in plasma, T6” value under setting [5] stood at 217. The “mean chromatographic area in plasma, T8” value under setting [6] is reported as 177. Further, the “mean chromatographic area in plasma, T10” value under setting [7] is listed as 89. For the same molecule, under setting [8], the “AUC: area under the zero-moment curve” value is 1304 ± 1975 relative chromatographic area/h, the “Cmax: relative maximum plasma level” value is reported as 282 ± 358 relative chromatographic area and the “observed Tmax: time required” value is 5 ± 2 h.

On to `CC(C)=C1CC2(C)C(=CC1=O)CCC(OC1OC(CO)C(O)C(O)C1O)C2C` (stereo not drawn) [isopetasoside], for which the “mean chromatographic area in plasma, T0.5” value under setting [1] was found to be 95. Further, the “mean chromatographic area in plasma, T1” value under setting [2] is on record as 394. For the same molecule, the “mean chromatographic area in plasma, T2” value under setting [3] worked out at 200. The “mean chromatographic area in plasma, T4” value under setting [4] was determined as 25. For the same molecule, the “mean chromatographic area in plasma, T6” value under setting [5] came out at 14. Further, under setting [6], the “mean chromatographic area in plasma, T8” value is 0. Besides, the “mean chromatographic area in plasma, T10” value under setting [7] is given as 0. Moreover, under setting [8], the “AUC: area under the zero-moment curve” value is reported as 722 ± 166 relative chromatographic area/h, the “Cmax: relative maximum plasma level” value is 455 ± 162 relative chromatographic area and the “observed Tmax: time required” value came out at 2 ± 1 h.

As to `C=C(C)[C@@H]1[C@H]2OC(=O)[C@@H]1[C@]1(O)C[C@H]3O[C@]34C(=O)O[C@H]2[C@]14C` [picrotoxinin], the “mean chromatographic area in plasma, T0.5” value under setting [1] amounted to 32. Besides, the “mean chromatographic area in plasma, T1” value under setting [2] was 102. Further, under setting [3], the “mean chromatographic area in plasma, T2” value was 91. Also, the “mean chromatographic area in plasma, T4” value under setting [4] is on record as 0. Under setting [5], the “mean chromatographic area in plasma, T6” value amounted to 0. Further, the “mean chromatographic area in plasma, T8” value under setting [6] is on record as 0. Also, the “mean chromatographic area in plasma, T10” value under setting [7] turned out to be 0. Also, under setting [8], the “AUC: area under the zero-moment curve” value is 231 ± 102 relative chromatographic area/h, the “Cmax: relative maximum plasma level” value was 136 ± 44 relative chromatographic area and the “observed Tmax: time required” value was 1.3 ± 0.5 h.

As to `O=C(O)CCCCCCCCC(=O)O` [sebacic acid Isomer 2, sebacic acid], under “in vivo”, the “mean chromatographic area in plasma, T0.5” value came out at 15; the “mean chromatographic area in plasma, T1” value amounted to 86; the “mean chromatographic area in plasma, T2” value turned out to be 86; the “mean chromatographic area in plasma, T4” value worked out at 15.

Consider `O=C(O)CCCCCCCCC(=O)O` [sebacic acid isomer, sebacic acid], for which, under “human, in vivo, po, 500 mg”, the “AUC: area under the zero-moment curve” value is listed as 141 ± 86 relative chromatographic area/h, the “Cmax: relative maximum plasma level” value was 119 ± 27 relative chromatographic area and the “observed Tmax: time required” value is on record as 1.2 ± 0.4 h. For the same molecule, where the note is “in vivo”, the “mean chromatographic area in plasma, T0.5” value is reported as 22; the “mean chromatographic area in plasma, T1” value is given as 102; the “mean chromatographic area in plasma, T2” value is on record as 35; the “mean chromatographic area in plasma, T4” value is listed as 0. For the setting “in vivo”, the “mean chromatographic area in plasma, T6” value is listed as 0; the “mean chromatographic area in plasma, T8” value turned out to be 0; the “mean chromatographic area in plasma, T10” value was found to be 0.

In the case of `COc1cc(C(=O)O)ccc1OS(=O)(=O)O` [vanillic acid 4-O-sulfate isomer 2, vanillic acid 4-O-sulfate], the “mean chromatographic area in plasma, T0.5” value under setting [1] was found to be 18. In addition, under setting [2], the “mean chromatographic area in plasma, T1” value came to 102. For the same molecule, under setting [3], the “mean chromatographic area in plasma, T2” value worked out at 43. Moreover, the “mean chromatographic area in plasma, T4” value under setting [4] was 0. Moreover, the “mean chromatographic area in plasma, T6” value under setting [5] was determined as 0. For the same molecule, under setting [6], the “mean chromatographic area in plasma, T8” value was 0. Further, the “mean chromatographic area in plasma, T10” value under setting [7] stood at 0. Further, under setting [8], the “AUC: area under the zero-moment curve” value is given as 152 ± 118 relative chromatographic area/h, the “Cmax: relative maximum plasma level” value is listed as 119 ± 41 relative chromatographic area and the “observed Tmax: time required” value amounted to 1.2 ± 0.4 h.

For the molecule `C[C@@H]1O[C@@H](O[C@@H]2[C@@H](O)[C@H](OCCc3ccc(O)c(O)c3)O[C@H](CO)[C@H]2OC(=O)/C=C/c2ccc(O)c(O)c2)[C@H](O)[C@H](O)[C@H]1O` [verbascoside], the “detection in plasma samples (native form or phase II metabolites)” value (in vivo) is recorded as “has not been detected in plasma samples”.

Take gardoside [gardoside isomer 1]: under “human, in vivo, po, 500 mg”, the “AUC: area under the zero-moment curve” value is recorded as 608 ± 375 relative chromatographic area/h, the “Cmax: relative maximum plasma level” value is recorded as 211 ± 72 relative chromatographic area and the “observed Tmax: time required” value turned out to be 2 ± 0 h. In addition, for the setting “in vivo”, the “mean chromatographic area in plasma, T0.5” value came out at 0; the “mean chromatographic area in plasma, T1” value is 85; the “mean chromatographic area in plasma, T2” value worked out at 211; the “mean chromatographic area in plasma, T4” value came to 86. For the same molecule, for the setting “in vivo”, the “mean chromatographic area in plasma, T6” value amounted to 27; the “mean chromatographic area in plasma, T8” value is recorded as 0; the “mean chromatographic area in plasma, T10” value was found to be 0.

For the origin of these results see paper PMC11544713, “The Application of Untargeted Metabolomic Approaches for the Search of Common Bioavailable Metabolites in Human Plasma Samples from Lippia citriodora and Olea europaea Extracts” (Journal of Agricultural and Food Chemistry, 2024).
